Measurements reported in patent publication US20070299091A1, “Azaindole Carboxamides” (priority 2004, published 2007).

What was measured:
5-HT2 = 5-HT2 (Sus scrofa, UniProt P50129); assay: radioligand binding, [3H]ketanserin, porcine cortex-membrane preparations; conditions: for Ki: porcine 5-HT2, [3H]ketanserin, average of 2 experiments in triplicate; for D3-selectivity 5-HT2/D3: ratio of Ki values 5-HT2/D3
Description: (§1) Measurement of the bonding strengths of the compounds to the serotonin-receptor subtypes 5-HT1A and 5-HT2 was carried out according to methods described by us (Heindl, C. et al. Tetrahedron: Asymmetry 2003, 14, 3141-3152). For this we incubated porcine cortex-membrane preparations with the radioligands [^3H]8-OH-DPAT (for 5-HT1A) or [^3H]ketanserin (5-HT2) and the compounds in various concentrations. In the same way the affinity of the test compounds to the porcine α1-receptor was investigated, wherein porcine cortex-membrane preparations and the α1-selective radioligand [^3H]prazosin were used.

human D3 = target: T1, human D3 (Homo sapiens, UniProt P35462); assay: radioligand binding, [3H]spiperone, CHO cell membrane homogenates expressing human D3; conditions: human D3, [3H]spiperon; average of 2-6 experiments in triplicate
T1 construct: expressed in transfected cells
T1 sequence (P35462 whole entry): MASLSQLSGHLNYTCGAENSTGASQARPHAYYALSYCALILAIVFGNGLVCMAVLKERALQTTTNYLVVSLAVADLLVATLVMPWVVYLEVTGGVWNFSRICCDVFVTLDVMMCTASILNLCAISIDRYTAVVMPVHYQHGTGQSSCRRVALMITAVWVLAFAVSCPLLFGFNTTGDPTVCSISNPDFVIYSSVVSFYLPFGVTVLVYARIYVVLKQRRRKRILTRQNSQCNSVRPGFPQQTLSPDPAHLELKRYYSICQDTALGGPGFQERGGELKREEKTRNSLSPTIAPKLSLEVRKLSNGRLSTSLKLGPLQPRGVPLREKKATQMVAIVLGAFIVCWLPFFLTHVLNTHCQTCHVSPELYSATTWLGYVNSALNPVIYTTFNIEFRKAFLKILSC
Description: (§2) The biological activities of the compounds according to the invention were determined in radioligand bonding investigations. All radioligand experiments were performed according to methods described by us (Hübner, H. et al. J. Med. Chem. 2000, 43, 756-762). For the measurement of the affinities to the receptors of the D2-family membrane homogenates of Chinese hamster ovary cells (CHO cells) were used, which stably express the human D2long-, the human D2short- (Hayes, G. et al. Mol. Endocrinol. 1992, 6, 920-926), the human D3- (Sokoloff, P. et al. Eur. J. Pharmacol. 1992, 225, 331-337) or the human D4.4-receptor sub-type, (Asghari, V. J. Neurochem. 1995, 65,1157-1165) respectively. Basically the binding assays took place by incubation of the receptor homogenates with the radioligand [^3H]spiperone and the compounds under investigation in various concentrations. Determination of the affinities to the D1-receptor took place with native membrane homogenates, obtained from porcine striatum, and the D1-selective radioligands [^3H]SCH 23390.

D1-receptor = target: T2, D1-receptor (Sus scrofa, UniProt P50130); assay: radioligand binding, D1 receptor, [3H]SCH 23390, porcine striatum membrane homogenates; conditions: porcine D1, [3H]SCH 23390; average of 2-6 experiments in triplicate
T2 construct: native membrane homogenates, obtained from porcine striatum; from tissue; host or cells: porcine striatum
T2 sequence (P50130 whole entry): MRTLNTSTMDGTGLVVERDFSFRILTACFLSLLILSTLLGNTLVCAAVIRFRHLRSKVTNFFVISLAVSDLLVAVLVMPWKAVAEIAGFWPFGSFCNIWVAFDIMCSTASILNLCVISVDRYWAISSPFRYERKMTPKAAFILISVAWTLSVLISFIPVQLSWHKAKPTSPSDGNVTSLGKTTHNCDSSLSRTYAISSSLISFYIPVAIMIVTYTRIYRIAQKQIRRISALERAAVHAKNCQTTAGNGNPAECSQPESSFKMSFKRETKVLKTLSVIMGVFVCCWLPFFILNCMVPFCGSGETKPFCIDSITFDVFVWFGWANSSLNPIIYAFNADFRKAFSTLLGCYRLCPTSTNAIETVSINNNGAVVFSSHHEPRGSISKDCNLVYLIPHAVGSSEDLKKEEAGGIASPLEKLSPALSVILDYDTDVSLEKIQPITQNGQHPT
Description: as §2

human D2long = target: T3, human D2long (Homo sapiens, UniProt P14416); assay: radioligand binding, [3H]spiperone, CHO cell membrane homogenates expressing human D2long; conditions: for Ki: human D2long, [3H]spiperon, average of 2-6 experiments in triplicate; for D3-selectivity D2long/D3: ratio of Ki values D2long/D3
T3 construct: expressed in transfected cells
T3 sequence (P14416 whole entry): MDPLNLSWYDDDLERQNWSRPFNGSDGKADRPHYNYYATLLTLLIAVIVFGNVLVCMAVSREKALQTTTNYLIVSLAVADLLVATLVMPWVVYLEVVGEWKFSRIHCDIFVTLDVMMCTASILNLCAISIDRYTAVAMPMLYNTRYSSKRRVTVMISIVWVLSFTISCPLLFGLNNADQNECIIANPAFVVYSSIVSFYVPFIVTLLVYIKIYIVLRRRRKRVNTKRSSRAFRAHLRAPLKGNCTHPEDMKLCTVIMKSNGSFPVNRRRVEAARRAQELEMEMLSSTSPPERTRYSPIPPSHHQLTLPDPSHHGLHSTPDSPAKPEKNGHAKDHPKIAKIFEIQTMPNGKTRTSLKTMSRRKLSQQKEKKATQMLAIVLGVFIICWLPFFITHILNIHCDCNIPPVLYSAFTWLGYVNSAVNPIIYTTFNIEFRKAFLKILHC
Description: (§3) The biological activities of the compounds according to the invention were determined in radioligand bonding investigations. […] Mol. […] Neurochem. […] Basically the binding assays took place by incubation of the receptor homogenates with the radioligand [^3H]spiperone and the compounds under investigation in various concentrations.

human D2short = target: T4, human D2short (Homo sapiens, UniProt P14416); assay: radioligand binding, [3H]spiperone, CHO cell membrane homogenates expressing human D2short; conditions: for Ki: human D2short, [3H]spiperon, average of 2-6 experiments in triplicate; for D3-selectivity D2short/D3: ratio of Ki values D2short/D3
T4 construct: expressed in transfected cells
T4 sequence (P14416 1-414 isoform P14416-2): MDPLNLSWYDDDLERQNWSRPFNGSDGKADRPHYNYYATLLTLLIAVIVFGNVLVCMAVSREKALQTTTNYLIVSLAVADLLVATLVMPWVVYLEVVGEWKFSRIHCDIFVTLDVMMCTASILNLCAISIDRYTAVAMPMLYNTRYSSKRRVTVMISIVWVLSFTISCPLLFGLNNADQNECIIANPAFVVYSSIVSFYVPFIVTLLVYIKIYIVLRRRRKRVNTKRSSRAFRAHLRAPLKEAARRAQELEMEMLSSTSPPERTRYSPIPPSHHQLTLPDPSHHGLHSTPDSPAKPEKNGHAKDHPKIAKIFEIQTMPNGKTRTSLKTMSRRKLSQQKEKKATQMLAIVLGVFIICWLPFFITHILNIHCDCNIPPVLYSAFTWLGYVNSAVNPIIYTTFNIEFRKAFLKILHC
Description: as §3

porcine α1-receptor [1] = target: T5, porcine α1-receptor; assay: radioligand binding, [3H]prazosin, porcine cortex-membrane preparations; conditions: porcine α1, [3H]prazosin; average of 2 experiments in triplicate
T5 construct: Ki-values α1; other: porcine α1, [3H]prazosin; average of 2 experiments in triplicate
Description: as §1

porcine α1-receptor [2] = assay: as above; conditions: ratio of Ki values α1/D3
Description: as §1

dopamine-D3-receptor = target: T6, dopamine-D3-receptor (Homo sapiens, UniProt P35462); assay: mitogenesis assay, [3H]thymidine incorporation in D3 receptor-expressing cells; assay type: cell-based; conditions: for EC50: dose-effect curve from average values of all individual trials, seven concentrations in quadruplicate; for classification of intrinsic activity at the D3-receptor: mitogenesis assay, compared with full agonist quinpirol; for agonistic activity: with reference to the maximum effect of the full agonist Quinpirol
T6 construct: expressed in transfected cells
T6 sequence (P35462 whole entry): as the sequence (P35462 whole entry) above
Description: Here various concentrations of the compound under investigation were incubated with D3 receptor-expressing cells and then the receptor-mediated stimulation of the mitogenesis rate was measured by incorporation of the radioactive marker [^3H]thymidine.

5-HT1A [3] = target: T7, 5-HT1A (Sus scrofa, UniProt A0A4X1UTF5); assay: radioligand binding, [3H]8-OH-DPAT, porcine cortex-membrane preparations; conditions: porcine 5-HT1A, [3H]8-OH-DPAT; average of 2 experiments in triplicate
T7 construct: we incubated porcine cortex-membrane preparations with the radioligands; from tissue; host or cells: porcine cortex
T7 sequence (A0A4X1UTF5 1-422): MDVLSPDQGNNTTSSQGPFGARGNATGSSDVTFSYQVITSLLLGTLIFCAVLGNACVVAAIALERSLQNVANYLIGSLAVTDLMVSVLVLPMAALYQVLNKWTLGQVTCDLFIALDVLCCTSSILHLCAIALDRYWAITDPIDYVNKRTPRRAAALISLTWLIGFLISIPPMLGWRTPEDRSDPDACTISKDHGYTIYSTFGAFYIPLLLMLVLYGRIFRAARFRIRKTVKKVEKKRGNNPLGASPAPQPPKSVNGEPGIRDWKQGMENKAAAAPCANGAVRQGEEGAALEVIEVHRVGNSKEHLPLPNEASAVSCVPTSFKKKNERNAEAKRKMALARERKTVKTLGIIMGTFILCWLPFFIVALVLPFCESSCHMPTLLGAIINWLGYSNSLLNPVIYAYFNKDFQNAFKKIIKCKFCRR
Description: as §1

5-HT1A [4] = assay: as above; conditions: ratio of Ki values 5-HT1A/D3
Description: as §1

human D4.4-receptor = target: T8, human D4.4-receptor (Homo sapiens, UniProt P21917); assay: radioligand binding, [3H]spiperone, CHO cell membrane homogenates expressing human D4.4; conditions: for Ki: human D4.4, [3H]spiperon, average of 2-6 experiments in triplicate; for D3-selectivity D4.4/D3: ratio of Ki values D4.4/D3
T8 construct: expressed in transfected cells
T8 sequence (P21917 1-419): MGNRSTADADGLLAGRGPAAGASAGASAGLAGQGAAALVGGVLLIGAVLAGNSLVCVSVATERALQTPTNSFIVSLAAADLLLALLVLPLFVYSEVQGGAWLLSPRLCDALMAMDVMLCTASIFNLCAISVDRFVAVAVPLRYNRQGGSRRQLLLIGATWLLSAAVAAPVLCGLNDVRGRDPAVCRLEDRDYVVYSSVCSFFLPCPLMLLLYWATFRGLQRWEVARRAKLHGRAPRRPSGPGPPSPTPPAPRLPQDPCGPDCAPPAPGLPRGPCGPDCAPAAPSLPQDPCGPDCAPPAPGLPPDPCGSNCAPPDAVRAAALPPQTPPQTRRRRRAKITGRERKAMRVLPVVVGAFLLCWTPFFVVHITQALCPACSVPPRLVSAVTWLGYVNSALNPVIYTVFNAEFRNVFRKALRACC
Description: as §3

Chain of 5-HT2 (P50129 whole entry): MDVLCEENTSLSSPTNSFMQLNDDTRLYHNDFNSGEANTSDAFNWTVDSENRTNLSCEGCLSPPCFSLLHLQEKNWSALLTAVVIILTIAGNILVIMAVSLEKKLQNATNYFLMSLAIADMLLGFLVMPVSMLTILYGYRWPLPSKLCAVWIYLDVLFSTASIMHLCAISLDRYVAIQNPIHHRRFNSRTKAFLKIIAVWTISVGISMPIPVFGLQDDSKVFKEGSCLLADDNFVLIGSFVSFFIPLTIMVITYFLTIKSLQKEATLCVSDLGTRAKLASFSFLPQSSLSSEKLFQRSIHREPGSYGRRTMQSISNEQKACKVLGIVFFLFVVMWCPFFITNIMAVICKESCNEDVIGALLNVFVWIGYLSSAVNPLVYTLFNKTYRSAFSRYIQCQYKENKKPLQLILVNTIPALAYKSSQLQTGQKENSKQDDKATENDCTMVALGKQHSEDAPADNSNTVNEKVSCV

Compound | Ki (5-HT2) | D3-selectivity 5-HT2/D3 (5-HT2) | Ki (human D3) | melting point | Ki (D1-receptor) | Ki (human D2long) | D3-selectivity D2long/D3 (human D2long) | Ki (human D2short) | D3-selectivity D2short/D3 (human D2short) | Ki (porcine α1-receptor [1]) | D3-selectivity α1/D3 (porcine α1-receptor [2]) | EC50 (dopamine-D3-receptor) | classification of intrinsic activity at the D3-receptor (dopamine-D3-receptor) | agonistic activity (dopamine-D3-receptor) | Ki (5-HT1A [3]) | D3-selectivity 5-HT1A/D3 (5-HT1A [4]) | Ki (human D4.4-receptor) | D3-selectivity D4.4/D3 (human D4.4-receptor)
O=C(NCCCCN1CCN(c2cccc(Cl)c2Cl)CC1)c1cc2cccnc2n1S(=O)(=O)c1ccccc1 [Example 4, N-(4-(4-(2,3-dichlorophenyl)piperazin-1-yl)butyl)-1-phenylsulfonyl-1H-pyrrolo[2,3-b]pyridin-2-ylcarbamide] | 200 nM | 250 | 0.8 nM | 82 °C | 680 nM | 68 nM | 85 | 39 nM | 49 | 21 nM | 26 | 2.1 nM | weakly partially agonistic | 16% | 16 nM | 20 | 110 nM | 140
COc1ccccc1N1CCN(CCCCNC(=O)c2cc3cccnc3n2S(=O)(=O)c2ccccc2)CC1 [Example 2, N-(4-(4-(2-methoxyphenyl)piperazin-1-yl)butyl)-1-phenylsulfonyl-1H-pyrrolo[2,3-b]pyridin-2-ylcarbamide] | 1100 nM | 120 | 9.3 nM | 166 °C | 1300 nM | 180 nM | 19 | 110 nM | 12 | 4.6 nM | 0.49 | 7.9 nM | weakly partially agonistic | 12% | 14 nM | 1.5 | 130 nM | 14
O=C(NCCCCN1CCN(c2cccc(Cl)c2Cl)CC1)c1cc2cccnc2[nH]1 [Example 3, N-(4-(4-(2,3-dichlorophenyl)piperazin-1-yl)butyl)-1H-pyrrolo[2,3-b]pyridin-2-ylcarbamide] | 63 nM | 480 | 0.13 nM | 232 °C | 440 nM | 19 nM | 150 | 6.5 nM | 34 | 3.6 nM | 28 | 1.3 nM | partial agonist | 41% | 24 nM | 180 | 42 nM | 320
COc1ccccc1N1CCN(CCCCNC(=O)c2cc3cccnc3[nH]2)CC1 [Example 1, N-(4-(4-(2-methoxyphenyl)piperazin-1-yl)butyl)-1H-pyrrolo[2,3-b]pyridin-2-ylcarbamide] | 340 nM | – | 0.82 nM | 117 °C | 1500 nM | 58 nM | 71 | 42 nM | 51 | 1.3 nM | 1.6 | 0.96 nM | weakly partially agonistic | 14% | 23 nM | 28 | 32 nM | 39
